In ChEMBL document CHEMBL3352442, “Synthesis and structure-activity relationships study of dithiolethiones as inducers of glutathione in the SH-SY5Y neuroblastoma cell line” (Bioorg Med Chem Lett, 2014) one finds Activity data, which are given here for 13 molecules.

Structures are written as SMILES. Active and inactive are the calls of the source. No cut-off for these calls is given here.

For series [1], the system named is SH-SY5Y. Put plainly: Induction of glutathione in human SH-SY5Y cells at 100 uM incubated for 24 hrs by GSH/GSSG Glo assay. It is filed as functional.
Series [2] can be described thus: (§1) Neuroprotection against 25 uM 6-hydroxydopamine-induced neurotoxicity in human SH-SY5Y cells assessed as cell viability at 100 uM pre-incubated for 24 hrs before 6-hydroxydopamine challenge. The class given is functional.
Series [3] is described as follows: Neuroprotection against 50 uM 6-hydroxydopamine-induced neurotoxicity in human SH-SY5Y cells assessed as cell viability at 100 uM pre-incubated for 24 hrs before 6-hydroxydopamine challenge. The class given is functional.
Series [4] in a line: Toxicity against human SH-SY5Y cells at 100 uM incubated for 24 hrs. It is filed as cell-based.
The test system of series [5] is SH-SY5Y. Described as §1. The class given is functional.

For the molecule `S=c1ssc2c1CCCC2`, in series [1], the Activity was determined as 98%. Still for that read-out and setting: the value for `S=c1sscc1-c1ccccc1` was “Active”. In the case of `CCc1cc(=S)ss1`, the result in series [1] was Active. `Cc1ssc(=S)c1Cl`: the Activity was 175% in series [1], 52% in series [2], 33% in series [3] and “Non-toxic” in series [4]. With `S=c1cc(C2CC2)ss1`, the outcome in series [1] was Active.

In the case of `COc1ccc(-c2cc(=S)ss2)cc1`, the result in series [1] was inactive. Same read-out and setting: the value for `FC(F)(F)Cc1cssc1=S` was “Active”; that for `Oc1ccc(-c2cc(=S)ss2)cc1` was “inactive”. Regarding `S=c1ccss1` [DITHIOLETHIONE], the Activity is given as 215% in series [1], 52% in series [2], 47% in series [3] and “Non-toxic” in series [4].

In the case of `S=c1ssc2c1CCC2`, the Activity in series [1] is given as 183%; in series [2] it was 41%; in series [3] it was 22%; in series [4] it was “Non-toxic”. As to `S=c1cc(-c2ccc(Cl)cc2)ss1`, the outcome in series [1] and in series [5] was inactive. Take `COc1ccc(-c2cssc2=S)cc1`: in series [1], the outcome was Active. On to `S=c1sscc1-c1ccc(Cl)cc1`, for which the result in series [1] was Active.
